Patent publication US20050130197A1, “Homogeneous fluorescence polarization assay for high throughput screening” (priority 2003, published 2005)
Where two headings read alike, the source gives them in different places. Where a SMILES comes first, the peptide text is derived from it. Where no end group is shown, it is not given here. [ ]: non-standard residue; d: D form. NMeF = CN[C@@H](Cc1ccccc1)C(=O)O

Experiments:
human NPFF2 receptor [1] = molecular target: T1, human NPFF2 receptor (Homo sapiens, UniProt Q9Y5X5); assay: Fluorescence polarization (FP) competition binding assay, TAMRA-NPFF tracer, 0.1% Pluronic F-127; conditions: for affinity to the TAMRA-NPFF binding site / binding to NPFF2 receptor: 10 μM, FP assay; for Ki for inhibiting TAMRA-NPFF binding (in words): FP displacement curves; for Ki: FP competition binding, TAMRA-NPFF tracer, human NPFF2 receptor membrane preparation, means ± S.E. of three separate experiments
T1 construct: purchased Euroscreen s.a; (Brussels, Belgium)
T1 sequence (Q9Y5X5 whole entry): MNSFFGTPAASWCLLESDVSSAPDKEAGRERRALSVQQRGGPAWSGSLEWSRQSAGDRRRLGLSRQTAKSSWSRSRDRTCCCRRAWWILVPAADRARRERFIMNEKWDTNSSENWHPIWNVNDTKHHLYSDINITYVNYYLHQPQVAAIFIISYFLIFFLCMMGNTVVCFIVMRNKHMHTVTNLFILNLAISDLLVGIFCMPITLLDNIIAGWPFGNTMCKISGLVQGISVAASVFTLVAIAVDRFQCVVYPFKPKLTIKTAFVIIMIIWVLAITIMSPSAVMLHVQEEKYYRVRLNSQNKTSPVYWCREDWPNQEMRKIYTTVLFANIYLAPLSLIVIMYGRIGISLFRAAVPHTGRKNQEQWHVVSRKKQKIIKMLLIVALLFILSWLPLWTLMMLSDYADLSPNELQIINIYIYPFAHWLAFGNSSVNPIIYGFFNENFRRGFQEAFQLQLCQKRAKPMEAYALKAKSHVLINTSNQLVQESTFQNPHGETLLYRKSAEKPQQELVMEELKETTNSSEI
Method: Human NPFF2 receptor membrane homogenates were diluted in a binding buffer (50 mM HEPES buffer, pH 7.4 and various concentrations of detergents) to the membrane concentration required. In general, the binding assay was performed in a final volume of 40 μl: 20 μl of displacing ligand, 10 μl of fluorescent tracer, and 10 μl of diluted receptor membrane preparation (3.6-4.2 ug protein/well depending on the assay), which were added sequentially. The reaction was incubated at room temperature for 0.5-24 h before FP was measured depending on each experiment.
FP binding data were analyzed and fitted using GraphPad Prism® software (GraphPad Software, Inc., San Diego, Calif.). Competitive binding data was fit to a one-site competitive binding equation using nonlinear regression curve fitting. IC50 values were determined by nonlinear regression analysis of the inhibition curves. Data points in the displacement curves and in the graphs of DMSO, nonionic detergents, Chicago Sky Blue 6B and tartrazine consist of an average of 4-6 repetitions. All error bars represent ±1 standard deviation unit of the spread of the data except for displacement curves, where the error bars represent ±SEM. mP is defined by the following equation: mP=1000×(I∥−I⊥)/(I∥+I⊥) where mP=milli-polarization, I∥=parallel component of the emitted light, and I⊥=perpendicular component of the emitted light. Assay precision was assessed by calculating the Z′ value: Z′=1−[(3*σbound)+(3*σdisplaced)/|(mPbound−mPdisplaced)|] where σ is the standard deviation in the signal, mP: the subscript “bound” corresponds to the signal obtained in the absence of a displacing substance; and the subscript “displaced” corresponds to the signal of a completely displaced ligand (Zhang, J-H. et al., J. Biomol. Screen., (1999) 4, 67-73; Banks, P. et al., J. Biomol. Screen., (2002) 7, 111-117). The denominator of the equation calculates the specific binding expressed in the absolute value of mP difference, and the numerator calculates the precision in both bound and displaced signals. Background correction was done after each analysis by subtracting blank parallel and perpendicular intensities from the respective intensities. According to Z′ value model, the Z′ values of above 0.5 indicate excellent assays.

human NPFF2 receptor [2] = molecular target: T1, human NPFF2 receptor; conditions: data from J. Biol. Chem. 275: 39324-39331 (2000); read-out: [125I]Ligand Filtration Human Ki (b); cited from earlier work
[3] = molecular target: T2, human NPFF2 receptor membranes (Homo sapiens, UniProt Q9Y5X5); assay: In vitro functional FP assay with GDP and GTPγS (GTP binding assay); format: biochemical; conditions: one agonist fixed at 2-3×IC50, other ligand varied; 3 μM GDP and 5 μM GTPγS
T2 construct: purchased Euroscreen s.a; (Brussels, Belgium)
T2 sequence (Q9Y5X5 whole entry): as above
Method: The binding assay was performed in a final volume of 40 μl as follows: 10 μl of different concentrations of displacing ligand, 10 μl of tracer, and 10 μl of diluted receptor membrane preparation (3.6-4.2 ug protein/well), which were added sequentially. After 15 min, 10 μl of the binding buffer with 3-10 μM GDP and 5-50 μM GTPγS was added. The reaction was incubated at room temperature for 15-120 min.
The concentrations of the other agonist increased from 0.0019 nM to 9.0 μM per well.
Next a combination of an agonist with a fixed concentration and an antagonist with varying concentrations was tested under the same conditions.

human NPFF2 receptor [4] = molecular target: T1, human NPFF2 receptor; conditions: data from Eur. J. Pharmacol. 451: 245-256 (2002); read-out: [125I]Ligand Filtration Human Ki (c); cited from earlier work

Row | Ki for inhibiting TAMRA-NPFF binding (in words) (human NPFF2 receptor [1]) | Ki (human NPFF2 receptor [1]) [µM] | Compound | affinity to the TAMRA-NPFF binding site / binding to NPFF2 receptor (human NPFF2 receptor [1]) | Ki (human NPFF2 receptor [2]) [µM] | Ki (human NPFF2 receptor [4]) [µM] | also measured
1 | nanomolar range |  | CC(C)C[C@H](NC(=O)[C@H](N)Cc1ccc(O)cc1)C(=O)N(C)[C@@H](Cc1ccccc1)C(=O)N[C@@H](CCC(N)=O)C(=O)N1CCC[C@H]1C(=O)N[C@@H](CCC(N)=O)C(=O)N[C@@H](CCCNC(=N)N)C(=O)N[C@@H](Cc1ccccc1)C(N)=O [[D-Tyr^1(NMe)Phe^3]NPFF, [D-Tyr^1, (N-Me)Phe^3]NPFF] (H-[dY]L[NMeF]QPQRF-NH2) |  |  |  | 
2 |  | 0.00046 ± 5e-05 | CC(C)C[C@H](NC(=O)[C@H](N)Cc1ccc(O)cc1)C(=O)N(C)[C@@H](Cc1ccccc1)C(=O)N[C@@H](CCC(N)=O)C(=O)N1CCC[C@H]1C(=O)N[C@@H](CCC(N)=O)C(=O)N[C@@H](CCCN=C(N)N)C(=O)N[C@@H](Cc1ccccc1)C(N)=O [[D-Tyr^1(NMe)Phe^3]NPFF, [D-Tyr^1, (N-Me)Phe^3]NPFF] (H-[dY]L[NMeF]QPQRF-NH2) |  |  | 0.00018 ± 4e-05 | 

Further lines, the compound ahead of its results:

Row | Compound | Ki for inhibiting TAMRA-NPFF binding (in words) (human NPFF2 receptor [1]) | Ki (human NPFF2 receptor [1]) [µM] | affinity to the TAMRA-NPFF binding site / binding to NPFF2 receptor (human NPFF2 receptor [1]) | Ki (human NPFF2 receptor [2]) [µM] | Ki (human NPFF2 receptor [4]) [µM] | also measured
3 | CC(COc1ccccc1)N(CCCl)Cc1ccccc1 (stereo not drawn) [phenoxybenzamine] |  |  | little or no affinity |  |  | 
4 | APSEPHHPGDQATQDQLAQYYSDLYQYITFVTRPRF-NH2 [Frog PP] | nanomolar range |  |  | 0.04 ± 0.011 |  | assay window (FIG. 8) (human NPFF2 receptor [1]; 0.1% trifluoroacetic acid added to assay buffer): 100 mP
5 | NC(N)=NCCC[C@@H](NC(=O)C(c1ccccc1)c1ccccc1)C(=O)NCc1ccc(O)cc1 [BIBP3226] |  | 0.096 ± 0.013 |  | 1.26 ± 0.111 | 0.084 ± 0.012 | affinity state in in vitro functional assays [3]: monophasic affinity state
6 | COc1cc(CNC(=O)CCCC/C=C/C(C)C)ccc1O [capsaicin] |  |  | little or no affinity |  |  | 
